What was measured:
TLR2 [1] = molecular target: TLR2 (Homo sapiens, UniProt O60603); test: TLR2 agonist screening assay, HEK-Blue TLR2 reporter cell line (NF-kB-driven SEAP, absorbance at 600 nm); assay type: cell-based; design: host or cells: HEK-293 (HEK-Blue TLR2 reporter cell line); conditions: HEK-Blue TLR2 reporter cells, agonist mode; average of all runs (Table 4)
How it was run: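 TLR2 engagement is scored through NF-kB-induced secreted alkaline phosphatase in HEK-293 cells, detected by substrate colour change at 600 nm after overnight compound treatment at 1% final DMSO. Potency is expressed as EC50.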

TLR2 [2] = molecular target: T1, TLR2 (Mus musculus, UniProt Q9QUN7); test: TLR2 functional assay, cytokine release from RAW 264.7 mouse macrophage cell line; assay type: cell-based; conditions: average of all runs
T1 construct: endogenous in cells; host or cells: RAW 264.7
T1 sequence (Q9QUN7 25-784): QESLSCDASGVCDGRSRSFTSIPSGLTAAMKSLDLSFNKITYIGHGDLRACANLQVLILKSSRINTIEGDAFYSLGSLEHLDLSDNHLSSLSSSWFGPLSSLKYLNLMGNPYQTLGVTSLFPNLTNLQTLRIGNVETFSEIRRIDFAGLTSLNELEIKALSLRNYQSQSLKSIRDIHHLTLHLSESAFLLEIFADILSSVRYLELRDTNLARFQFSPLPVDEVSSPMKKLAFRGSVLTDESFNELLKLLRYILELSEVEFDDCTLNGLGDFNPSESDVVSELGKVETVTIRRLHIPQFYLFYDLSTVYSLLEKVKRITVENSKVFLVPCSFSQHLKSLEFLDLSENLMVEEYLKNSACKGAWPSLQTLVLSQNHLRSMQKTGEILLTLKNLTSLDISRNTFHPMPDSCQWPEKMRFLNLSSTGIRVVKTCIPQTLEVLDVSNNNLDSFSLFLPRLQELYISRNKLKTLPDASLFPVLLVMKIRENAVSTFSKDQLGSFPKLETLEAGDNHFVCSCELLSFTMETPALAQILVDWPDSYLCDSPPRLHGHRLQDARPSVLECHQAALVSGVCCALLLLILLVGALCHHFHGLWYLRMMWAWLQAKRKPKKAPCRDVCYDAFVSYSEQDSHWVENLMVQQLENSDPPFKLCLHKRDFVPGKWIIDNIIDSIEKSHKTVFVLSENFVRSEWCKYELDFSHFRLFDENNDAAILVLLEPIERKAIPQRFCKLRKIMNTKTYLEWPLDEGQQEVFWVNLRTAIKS
Procedure: Cells of the immune system respond to TLR agonists in part by secreting cytokines. Functional assays for TLR2 agonists measure cytokine release from purified immune cells or immortalized cell lines derived from immune cells. Cytokine release is measured by standard ELISA approaches or multiplexed analysis using the Meso Scale Discovery (MSD) platform.
Purified primary human peripheral blood mononuclear cells or RAW 264.7 mouse macrophage cell line cells are plated at approximately 40,000 cells per well. Cells are treated with agonist compounds and assays 6-24 hours post-treatment for cytokines released into the cell culture media.
Following assay measurements utilizing either HEK-Blue detection or cytokine release, all data is analyzed with the GraphPad Prism8 statistical package to determine EC50, binding and activity metrics for the TLR2 modulators.
Numerous cell lines derived from various cell types can respond to TLR2 agonists with stereotyped cytokine and chemokine secretion. In particular, cell lines derived from macrophages respond robustly to TLR2 agonists by secreting a wide array of cytokines, including (but not limited to) TNF-alpha, IL-1, IL-10 and IL-12. The human monocytic cell line THP-1, the mouse macrophage line RAW-264.7, and the rat macrophage line NR8383 were used. For each assay, the respective cell lines were plated into 96-well plates overnight and then treated the following day with various TLR2-engaging compounds at varying concentrations. The next day, supernatants were collected and assayed by multiplex immunodetection for cytokines released (MSD detection kits for respective species).
Data provided in Table 5 is generated using protocols described in Example 45 and 46.

Chain of TLR2 (Homo sapiens, UniProt O60603) (O60603 21-784): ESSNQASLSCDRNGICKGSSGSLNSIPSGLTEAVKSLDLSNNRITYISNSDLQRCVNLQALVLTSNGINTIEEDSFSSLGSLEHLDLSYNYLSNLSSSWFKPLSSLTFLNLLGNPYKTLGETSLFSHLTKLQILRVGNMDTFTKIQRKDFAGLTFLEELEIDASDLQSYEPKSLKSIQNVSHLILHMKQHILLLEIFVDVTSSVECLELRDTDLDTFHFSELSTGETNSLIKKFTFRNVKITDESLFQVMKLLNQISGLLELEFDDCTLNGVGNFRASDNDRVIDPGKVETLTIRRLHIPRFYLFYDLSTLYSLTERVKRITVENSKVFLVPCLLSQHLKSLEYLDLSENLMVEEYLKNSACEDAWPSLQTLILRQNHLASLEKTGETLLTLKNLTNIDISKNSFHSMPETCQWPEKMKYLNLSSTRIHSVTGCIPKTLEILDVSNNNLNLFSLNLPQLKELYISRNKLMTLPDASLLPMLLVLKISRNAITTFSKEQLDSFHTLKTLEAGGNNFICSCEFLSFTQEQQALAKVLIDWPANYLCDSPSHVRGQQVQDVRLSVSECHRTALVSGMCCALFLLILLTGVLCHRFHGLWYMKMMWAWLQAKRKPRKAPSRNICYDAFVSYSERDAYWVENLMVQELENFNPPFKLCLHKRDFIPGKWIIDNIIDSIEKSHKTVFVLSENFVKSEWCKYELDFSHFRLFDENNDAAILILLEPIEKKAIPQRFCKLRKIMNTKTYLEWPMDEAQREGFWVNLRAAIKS

| Structure (SMILES) | EC50 (TLR2 [1]) | EC50 (TLR2 [2]) |
| --- | --- | --- |
| CCCCCCCCCCCNC(=O)N[C@H]1CN(C(c2ccc(C(=O)N3C[C@@H](C(=O)N[C@H]4C[C@@H]4c4ccccc4)[C@H](C(=O)N[C@H]4C[C@@H]4c4ccccc4)C3)cc2)C(F)(F)F)C[C@@H]1OC (single isomer, unassigned) [Compound 230, (3S,4S)—N3,N4-bis((1S,2R)-2-phenylcyclopropyl)-1-(4-((R*)-2,2,2-trifluoro-1-((3S,4S)-3-methoxy-4-(3-undecylureido)pyrrolidin-1-yl)ethyl)benzoyl)pyrrolidine-3,4-dicarboxamide] | 0.1 to 50 nM | > 1000 nM |
| CCCCCCCCCCCNC(=O)N[C@H]1CN(C(c2ccc(C(=O)N3C[C@@H](C(=O)N[C@H]4C[C@@H]4c4ccccc4)[C@H](C(=O)N[C@H]4C[C@@H]4c4ccccc4)C3)cc2)C(F)(F)F)C[C@@H]1OC (single isomer, unassigned) [Compound 231, (3S,4S)—N3,N4-bis((1S,2R)-2-phenylcyclopropyl)-1-(4-((S*)-2,2,2-trifluoro-1-((3S,4S)-3-methoxy-4-(3-undecylureido)pyrrolidin-1-yl)ethyl)benzoyl)pyrrolidine-3,4-dicarboxamide] | 0.1 to 50 nM | 51 to 350 nM |
| CCCCCCCCCCCCCNC(=O)N[C@H]1CN(C(=O)c2ccc(C(=O)N3C[C@@H](C(=O)N[C@H]4C[C@@H]4c4ccccc4)[C@H](C(=O)N[C@H]4C[C@@H]4c4ccccc4)C3)cc2)C[C@@H]1OC [Compound 134, (3S,4S)-1-(4-((3S,4S)-3-methoxy-4-(3-tridecylureido)pyrrolidine-1-carbonyl)benzoyl)-N3,N4-bis((1S,2R)-2-phenylcyclopropyl)pyrrolidine-3,4-dicarboxamide] | 0.1 to 50 nM | 351 to 1000 nM |
| CCCCCCNC(=O)[C@H](CNC(=O)c1ccc(C(=O)N2C[C@@H](C(=O)N[C@H]3C[C@@H]3c3ccccc3)[C@H](C(=O)N[C@H]3C[C@@H]3c3ccccc3)C2)cc1)NC(=O)Cc1ccc(F)cc1 [Compound 138, (3S,4S)-1-(4-(((S)-2-(2-(4-fluorophenyl)acetamido)-3-(hexylamino)-3-oxopropyl)carbamoyl)benzoyl)-N3,N4-bis((1S,2R)-2-phenylcyclopropyl) pyrrolidine-3,4-dicarboxamide] | 0.1 to 50 nM | > 1000 nM |
| CCCCCCCCC(=O)N[C@@H](CNC(=O)c1ccc(C(=O)N2C[C@@H](C(=O)N[C@H]3C[C@@H]3c3ccccc3)[C@H](C(=O)N[C@H]3C[C@@H]3c3ccccc3)C2)cc1)C(=O)NCCCCCC [Compound 140, (3S,4S)-1-(4-(((S)-3-(hexylamino)-2-nonanamido-3-oxopropyl)carbamoyl)benzoyl)-N3,N4-bis((1S,2R)-2-phenylcyclopropyl)pyrrolidine-3,4-dicarboxamide] | 0.1 to 50 nM | 51 to 350 nM |
| CCCCCCCCCCCCCCC(=O)N[C@@H]1CCCN(C(=O)c2ccc(C(=O)N3C[C@@H](C(=O)N[C@H]4C[C@@H]4c4ccccc4)[C@H](C(=O)N[C@H]4C[C@@H]4c4ccccc4)C3)cc2)C1 [Compound 152, (3S,4S)-1-(4-((R)-3-pentadecanamidopiperidine-1-carbonyl)benzoyl)-N3,N4-bis((1S,2R)-2-phenylcyclopropyl)pyrrolidine-3,4-dicarboxamide] | 0.1 to 50 nM | > 1000 nM |
| CCCCCCCCCC(=O)N[C@@H](CNC(=O)c1ccc(C(=O)N2C[C@@H](C(=O)N[C@H]3C[C@@H]3c3ccccc3)[C@H](C(=O)N[C@H]3C[C@@H]3c3ccccc3)C2)cc1)C(=O)NCCCCCC [Compound 175, (3S,4S)-1-(4-(((S)-2-decanamido-3-(hexylamino)-3-oxopropyl)carbamoyl)benzoyl)-N3,N4-bis ((1S,2R)-2-phenylcyclopropyl) pyrrolidine-3,4-dicarboxamide] | 0.1 to 50 nM | 51 to 350 nM |
| CCCCCCCCCNC(=O)[C@@H]1CN(C(=O)c2ccc(C(=O)N3C[C@@H](C(=O)N[C@H]4C[C@@H]4c4ccccc4)[C@H](C(=O)N[C@H]4C[C@@H]4c4ccccc4)C3)cc2)CCN1C(C)=O [Compound 257, (3S,4S)-1-(4-((S)-4-acetyl-3-(nonylcarbamoyl)piperazine-1-carbonyl)benzoyl)-N3,N4-bis((1S,2R)-2-phenylcyclopropyl)pyrrolidine-3,4-dicarboxamide] | 351 to 1000 nM | – |
| CCCCCCCNC(=O)[C@@H]1CN(C(=O)c2ccc(C(=O)N3C[C@@H](C(=O)N[C@H]4C[C@@H]4c4ccccc4)[C@H](C(=O)N[C@H]4C[C@@H]4c4ccccc4)C3)cc2)CCN1C(C)=O [Compound 258, (3S,4S)-1-(4-((S)-4-acetyl-3-(heptylcarbamoyl)piperazine-1-carbonyl)benzoyl)-N3,N4-bis((1S,2R)-2-phenylcyclopropyl)pyrrolidine-3,4-dicarboxamide] | > 1000 nM | – |
| CCCCCCCCCC(=O)N[C@@H](Cc1nnc(-c2ccc(C(=O)N3C[C@@H](C(=O)N[C@H]4C[C@@H]4c4ccccc4)[C@H](C(=O)N[C@H]4C[C@@H]4c4ccccc4)C3)cc2)o1)C(=O)NCCCCCC [Compound 259, (3S,4S)-1-(4-(5-((S)-2-decanamido-3-(hexylamino)-3-oxopropyl)-1,3,4-oxadiazol-2-yl)benzoyl)-N3,N4-bis((1S,2R)-2-phenylcyclopropyl)pyrrolidine-3,4-dicarboxamide] | 351 to 1000 nM | – |
| CCCCCCCCCCCCCNC(=O)N[C@H]1CN(c2nnc(-c3ccc(C(=O)N4C[C@@H](C(=O)N[C@H]5C[C@@H]5c5ccccc5)[C@H](C(=O)N[C@H]5C[C@@H]5c5ccccc5)C4)cc3)o2)C[C@@H]1OC [Compound 260, (3S,4S)-1-(4-(5-((3S,4S)-3-methoxy-4-(3-tridecylureido)pyrrolidin-1-yl)-1,3,4-oxadiazol-2-yl)benzoyl)-N3,N4-bis((1S,2R)-2-phenylcyclopropyl)pyrrolidine-3,4-dicarboxamide] | 0.1 to 50 nM | – |
| CCCCCCCCCC(=O)N[C@@H](CNc1nc2ccc(C(=O)N3C[C@@H](C(=O)N[C@H]4C[C@@H]4c4ccccc4)[C@H](C(=O)N[C@H]4C[C@@H]4c4ccccc4)C3)cc2o1)C(=O)NCCCCCC [Compound 261, (3S,4S)-1-(2-(((S)-2-decanamido-3-(hexylamino)-3-oxopropyl)amino)benzo[d]oxazole-6-carbonyl)-N3,N4-bis((1S,2R)-2-phenylcyclopropyl)pyrrolidine-3,4-dicarboxamide] | > 1000 nM | – |
| CCCCCCCCCC(=O)N[C@@H](CNc1nc2ccc(C(=O)N3C[C@@H](C(=O)N[C@H]4C[C@@H]4c4ccccc4)[C@H](C(=O)N[C@H]4C[C@@H]4c4ccccc4)C3)cc2s1)C(=O)NCCCCCC [Compound 262, (3S,4S)-1-(2-(((S)-2-decanamido-3-(hexylamino)-3-oxopropyl)amino)benzo[d]thiazole-6-carbonyl)-N3,N4-bis((1S,2R)-2-phenylcyclopropyl)pyrrolidine-3,4-dicarboxamide] | > 1000 nM | – |
| CCCCCCCCCC(=O)N[C@@H](COCc1ccc(C(=O)N2C[C@@H](C(=O)N[C@H]3C[C@@H]3c3ccccc3)[C@H](C(=O)N[C@H]3C[C@@H]3c3ccccc3)C2)cc1)C(=O)NCCCCCC [Compound 263, (3S,4S)-1-(4-(((S)-2-decanamido-3-(hexylamino)-3-oxopropoxy)methyl)benzoyl)-N3,N4-bis((1S,2R)-2-phenylcyclopropyl) pyrrolidine-3,4-dicarboxamide] | 351 to 1000 nM | – |
| CCCCCNC(=O)[C@@H]1CN(C(=O)c2ccc(C(=O)N3C[C@@H](C(=O)N[C@H]4C[C@@H]4c4ccccc4)[C@H](C(=O)N[C@H]4C[C@@H]4c4ccccc4)C3)cc2)CCN1C(C)=O [Compound 264, (3S,4S)-1-(4-((S)-4-acetyl-3-(pentylcarbamoyl)piperazine-1-carbonyl)benzoyl)-N3,N4-bis((1S,2R)-2-phenylcyclopropyl) pyrrolidine-3,4-dicarboxamide] | > 1000 nM | – |
| CCCNC(=O)[C@@H]1CN(C(=O)c2ccc(C(=O)N3C[C@@H](C(=O)N[C@H]4C[C@@H]4c4ccccc4)[C@H](C(=O)N[C@H]4C[C@@H]4c4ccccc4)C3)cc2)CCN1C(C)=O [Compound 265, (3S,4S)-1-(4-((S)-4-acetyl-3-(propylcarbamoyl)piperazine-1-carbonyl)benzoyl)-N3,N4-bis((1S,2R)-2-phenylcyclopropyl) pyrrolidine-3,4-dicarboxamide] | > 1000 nM | – |
| CCCCCCCCCC(=O)N[C@@H](CNCc1ccc(C(=O)N2C[C@@H](C(=O)N[C@H]3C[C@@H]3c3ccccc3)[C@H](C(=O)N[C@H]3C[C@@H]3c3ccccc3)C2)cc1)C(=O)NCCCCCC [Compound 266, (3S,4S)-1-(4-((((S)-2-decanamido-3-(hexylamino)-3-oxopropyl)amino)methyl)benzoyl)-N3,N4-bis((1S,2R)-2-phenylcyclopropyl) pyrrolidine-3,4-dicarboxamide] | 351 to 1000 nM | – |

Reference: US11951094B2, “TLR2 modulator compounds, pharmaceutical compositions and uses thereof” (Axial Therapeutics, Inc., priority 2020, dated 2024)
